In assay [1] the test system is LPS-activated tissue-factor (TF) activity in human monocytes. Put plainly: Pro-coagulant activity of tissue factor (one-stage clotting time) in LPS-stimulated human monocytes. The assay is classed as cell-based. The following applies: for time at which inhibition of LPS-mediated TF activity is evident: 0.1 μg/ml LPS, 5 h versus 24 h (FIG. 2); for tissue-factor activity (pro-coagulant activity, one-stage clotting time): 50 μM to 300 μM, then 0.1 μg/ml LPS for 5 h and 24 h (FIG. 2). As for the experimental part: FIG. 2—The glycerophosphoinositols inhibit LPS-activated tissue-factor activity in human monocytes. Human monocytes were purified from peripheral blood of healthy donors and incubated at 37° C. for 20 min without or with different concentrations (from 50 μM to 300 μM) GroPIns or GroPIns4P, and for a further 5 h and 24 h in the absence and in presence of 0.1 μg/ml LPS from E. coli. […] Data are means (±SD) of three independent experiments performed with cells from different donors. Asterisks indicate statistically significant differences (*p=0.015; **p<0.005; ***p=0.0003) versus their respective controls. As shown, pro-coagulant activity was not detectable in untreated monocytes, and it was induced in a time-dependent manner by LPS stimulation.
The glycerophosphoinositol, differently from the PLA2IVα inhibitor, inhibits LPS-activated tissue-factor activity in human monocytes. Human monocytes were purified from peripheral blood of two healthy donors (experiment I and II) and pre-incubated at 37° C. for 20 min without (black line) or with 300 μM glycerophosphoinositol (GroPIns, blue line) or 0.5 μM PLA2IVα inhibitor (pyrrophenone, Pf, red line), and for a further 24 h in the absence or presence of increasing concentrations of LPS from E. coli (endotoxin).
The glycerophosphoinositol inhibits in a dose-dependent manner LPS-activated tissue-factor activity in human monocytes. Human monocytes were purified from peripheral blood of three healthy donors (experiments III, IV and V) and pre-incubated at 37° C. for 20 min without or with increasing concentrations of glycerophosphoinositol (GroPIns) and for a further 24 h in the absence or presence of 10 ng/ml of LPS from E. coli (endotoxin). […] The two insets in Exp IV and V show the pro-coagulant activity of tissue factor, assessed in cells stimulated by 10 ng/ml of endotoxin, with (filled bars) or without (dotted bars) 20 min pre-incubation at 37° C., in absence (Control) or in presence of 300 μM GroPIns.
The glycerophosphoinositols inhibit LPS-activated tissue-factor activity in human monocytes.
Human monocytes were obtained from whole blood collected from healthy donors (informed consent was obtained) and anticoagulated with 0.1 vol 3.8% sodium citrate/0.15 mol/l NaCl. The leukocytes were sedimented at 180×g for 15 min at 10° C. The sedimented cells were diluted to the initial volume with citrate-saline and sedimented again. This step was repeated to minimise platelet contamination. The cells were then layered onto Lymphoprep™, and centrifuged at 700×g for 20 min at 20° C. The ring of mononuclear cells was collected and sedimented at 620×g for 7 min at 8° C. The pellet was resuspended in citrate-saline and the cells were washed twice. Monocytes were purified using a discontinuous Percoll™ density gradient; the mononuclear cell preparation was resuspended in RPMI-1640 medium supplemented with 10% heat-inactivated foetal calf serum, and was layered onto a 46% isosmotic Percoll™ solution. After centrifugation at 20° C. for 30 min at 550×g, the cells at the RPMI-1640 medium/Percoll™ interface were collected and sedimented at 620×g. The pellet was resuspended in citrate-saline and the cells were washed twice. The final monocyte preparation was then resuspended in serum-free RPMI-1640 at the concentration required.
The pro-coagulant activity of tissue factor (TF activity) was measured in cell lysates according to one-stage clotting time [as reported in (Evangelista et al., Thromb Haemost. 2005; 94, 568-577)]. One hundred μl of cell lysates were added to 100 μl of 37° C. prewarmed normal human plasma. After 30 s, 100 μl 20 mM CaCl2 were added to the mixture and the clotting time was determined using a KC4A Amellung Coagulometer (Mascia Brunelli, Milan, Italy). The data were then converted in arbitrary units by interpolation with a standard curve generated with serial dilutions of human recombinant thromboplastin (Hemoliance, Instrumentation Laboratory).

Assay [2] concerns LPS-mediated gene transcription of TNFα. Put plainly: Real-time RT-PCR of TNFα mRNA in LPS-stimulated monocytes. The assay is classed as cell-based, human. The following applies: 300 μM, 0.1 μg/ml LPS for 1.5 h or 24 h. Here is the method:
(§1) FIG. 4—The glycerophosphoinositols inhibit LPS-mediated gene transcription of TNFα, IL-1β and COX-2. Human monocytes were purified from peripheral blood and incubated at 37° C. for 20 min without or with 300 μM GroPIns or GroPIns4P, and for an additional 1.5 h or 24 h in the absence and presence of 0.1 μg/ml LPS from E. coli. At each time point, RNA was extracted and converted to cDNA for real-time PCR analysis of TNFα, IL-1β and COX-2. Each sample was measured in triplicate and the data were calculated using the delta-delta method (2-DDCT). Transcription of the house-keeping gene GAPDH was used to normalise the data. Measurements of mRNA levels were expressed as fold-increase over the respective control (unstimulated) cells, and are means (±SD) of triplicates from one representative experiment of 4 experiments performed with cells from different donors. Asterisks indicate statistically significant differences (*p<0.0485; **p<0.0092).
(§2) One μg total RNA (extracted through thiocyanate/caesium chloride method) was converted to cDNA using Moloney murine leukaemia virus reverse transcriptase (Applied Biosystems, Italy). […] Each sample was measured in triplicate and the data were analysed with the SDS 2.0 software (Applied Biosystems, Italy) by the delta-delta method (2-DDCT) for comparing relative expression results. […]
Background: Quantitative PCR measures a nucleic acid by following its amplification.

Assay [3] relates to LPS-mediated gene transcription of IL-1β. Put plainly: Real-time RT-PCR of IL-1β mRNA in LPS-stimulated monocytes. The format is cell-based, human. The conditions noted are these: 300 μM, 0.1 μg/ml LPS for 1.5 h or 24 h. Here is the method:
as §1, §2

Setting [4] is: 300 μM, endotoxin 10 ng/ml for 24 h (FIG. 12).

In the case of `O=P(O)(O)OC1[C@@H](O)[C@H](O)C(OP(=O)(O)OCC(O)CO)[C@@H](O)[C@H]1O` (stereo partly shown) [GroPIns4P, glycerophosphoinositol 4-phosphate], the “time at which inhibition of LPS-mediated TF activity is evident” value in assay [1] is listed as “already effective at shorter times (5 h)”. Besides, in assay [1] (20 min pre-incubation), the “tissue-factor activity (pro-coagulant activity, one-stage clotting time)” value is on record as “dose-dependent reduction in tissue-factor activity”. Further, in assay [1] (setting [4]), the TF activity entry is “reduce TF activity” and the “efficacy in reducing TF activity compared with GroPIns” value is listed as “higher efficacy than GroPIns”. Also, the “effect on LPS-induced TNFα mRNA expression” value in assay [2] is on record as “inhibited the effects of LPS on expression of all of the genes analysed”. Besides, in assay [3], the “effect on LPS-induced IL-1β mRNA expression” value is recorded as “inhibited the effects of LPS on expression of all of the genes analysed”.

`O=P(O)(OCC(O)CO)OC1C(O)C(O)C(O)C(O)C1O` (stereo not shown) [GroPIns, glycerophosphoinositol]: the “time at which inhibition of LPS-mediated TF activity is evident” value in assay [1] is “mainly evident at long times (24 h)”. The “tissue-factor activity (pro-coagulant activity, one-stage clotting time)” value in assay [1] (20 min pre-incubation) was “dose-dependent reduction in tissue-factor activity”. The TF activity entry is “reduces TF activity” in assay [1] (300 μM, 20 min pre-incubation, increasing concentrations of endotoxin for 24 h (FIG. 10)); “reduce TF activity” in assay [1] (setting [4]); “dose-dependently reduces TF activity” in assay [1] (increasing concentrations of compound, endotoxin 10 ng/ml for 24 h (FIG. 11)). The “effect on LPS-induced TNFα mRNA expression” value in assay [2] is “inhibited the effects of LPS on expression of all of the genes analysed”. Further, in assay [3], the “effect on LPS-induced IL-1β mRNA expression” value was “inhibited the effects of LPS on expression of all of the genes analysed”.

Values taken from patent publication US9351983B2, “Use of glycerophosphoinositols for the treatment of septic shock” (CONSIGLIO NAZIONALE DELLE RICERCHE, priority 2012, dated 2016).
